From patent US7728146B2, “Enzyme inhibitors” (Probiodrug AG, priority 2006, dated 2010) come the findings set out here.

Structures are written as SMILES.

Data set [1] is described as follows: Blood-brain distribution / LogBB. The format is in vivo. The following applies: male Wistar rats, bolus plus 60 min continuous i.v. infusion; for Kp at 60 min / Kp at 1 h: Wistar (Crl:WI), rat, brain and plasma, iv; for Kp at 1 h: read-out: Brain/Plasma ratio; for LogBB Mean: mean of the animals. As for the experimental part:
Male Wistar rats (N=20, 5 per Group; Crl:WI) with a body weight ranging between 300 and 350 g were purchased from Charles River Laboratories (Sulzfeld, Germany).
One week after adaptation to the housing conditions, catheters were implanted into the carotid artery and jugular vein of the rats under general anaesthesia (i.p. injection of 0.25 ml/kg b.w. Rompun® [2%], BayerVital, Germany and 0.5 ml/kg b.w. Ketamin 10, Atarost GmbH & Co., Twistringen, Germany). The animals were allowed to recover for one week. The catheters were flushed with heparin-saline (100 IU/ml) three times per week. In case of dysfunction of the catheter, a new animal were recruited to implant catheters into the carotid artery and jugular vein of this new rat under general anaesthesia. No anaesthetics were administered during infusion for compound transfer.
The bolus dose of compounds were dissolved in 10 μl DMSO and than diluted to 1 ml with saline (0.154 mol/l) and were injected via the venous catheter (n=5 rats). Thereafter, a continuous i.v. infusion of the compound solved in 10 μl DMSO and diluted to 5 ml with saline (infusion rate 0.083 ml/min; Perfusor^R fm, B. Braun, Melsungen AG, Germany) were commenced for 60 min. 150 μl arterial blood samples were taken at 0, 20, 40, 50 and 60 min and stored on ice until centrifugation (12000 rpm for 2 min). Separated plasma were frozen in liquid nitrogen for further analysis.
After 60 min primed-continuous infusion the N=5 rats were heparinized with 50 IU per 100 g b.w. heparin 5 min before the end of protease inhibitor infusion. The rats were quickly anaesthetized with i.a. ketamin® injection and bled to death from the abdominal vessels. The aorta supplying the upper part of the body were separated and canulated. The upper part of the body (including the brain) were perfused with 20 ml ice cold saline to flush the vessels free within the brain. The brains were taken out of the skull, rinsed briefly in ice cold saline and placed on filter paper.
Preparation: The brains were divided into their hemispheres, which were weighed and frozen in liquid nitrogen for further analysis.
In plasma samples and brain tissues concentrations of compounds were measured using the aforementioned LC-MS methods.

The next data set deals with male Sprague Dawley rats. In words: Circadian courses of activity, feeding and drinking behaviour; body weight, food and fluid consumption during chronic administration. The note with it: vs vehicle. Format: in vivo, rat. As to the method:
Example 130b as hydrochloride salt was dissolved in tap water in concentrations of 0.03, 0.1 and 0.3 mg/ml. Assuming a daily fluid intake of approx. 30 ml per animal (animal's weight: approx. 300 g), these concentrations should result in doses of approx. 3, 10 and 30 mg/kg/day. The solutions were prepared freshly every day. During chronic administration, solution offer was limited to 40 ml per day for each animal.
Imipramine was dissolved 0.5% Natrosol and administered once daily i.p. for 8 days (test group TG 11, see below) with a dose of 15 mg/kg/day in a volume of 1 ml/kg.
216 male Sprague Dawley rats. The animals were 6 weeks old at the start of the study. They were housed in groups of 4 animals (“acute animals”) or in single cages (“chronic animals”) at 12 h/12 h light/dark (start of the light phase at 2 a.m.), 20° C., 60% rH. Animals were provided by Elevage Janvier, France.
During the 7 days lasting period of chronic compound administration, animals were kept singly. On the first day they were kept in single Macrolon home cages. On the next day they were transferred to activity monitoring cages and kept there for 3 days. For the following 3 days they returned to their home cages (single housing).
Animals received the test compound chronically via the drinking fluid. The reference compound Imipramine was given i.p. (one administration per day, one hour before the respective tests). Fluid supply was restricted to 40 ml per day for all test groups. On the first day of chronic test compound exposure, animals were kept singly in standard single home cages to enable an individual assessment of test compound intake. On the second day, animals were transferred to infrared monitoring cages for 3 days. Food and fluid offer were the same as in the home cage. Measuring rearing activity near fluid bottles and food grid enabled an assessment of the time structure of food and water (compound) consumption. Behavioural observation started one hour before the beginning of the dark phase (2 p.m.). After 22 hours, body weight, food and fluid consumption were measured. 2 hours later, the next recording started.
Raw data were provided as computer files accompanied by written protocol sheets. As the animals were still adapting to the environment and administration the time courses of the following parameters were calculated only for the last day of registration: • Food and fluid intake (time %) • Number of feeding and […] bouts • Meal pattern parameters reflecting e.g. the duration and recurrence of feeding and drinking bouts • Total distance travelled (cm/min) • Small movements (cm/min) • Distance travelled with rapid locomotion (cm/min) • Distance travelled with slow locomotion (cm/min) • Immobility (time %) • Use of available space (%) • Locomotor stereotypies (score, first hour of the dark phase only) • Rearing (time %) • Number of rearing acts (N) Feeding and Drinking Bouts and Bout-Related Analysis:
On the basis of high-resolution infrared beam recordings, feeding and drinking is identified by means of beam interruption in the upper frame near to the positions of food or water. Feeding or drinking acts are then defined as temporally contingent behavioural pattern separated from each other by intervals not longer than 0.5 seconds. Normally, several acts form a feeding or drinking bout. The intervals within a bout are definitely shorter than between subsequent bouts. A threshold interval can be set to distinguish between intra-bout and inter-bout intervals.
Stereotyped locomotion was assessed by means of statistical comparisons between the observed locomotor sequences (as described by the movement from one of the 4×4 subsquares to another) and a “random walk”. The comparison is performed at 5 different levels:
The coefficient of locomotor stereotypies (SC, in %) at each level has a value of SC=0 when there are no regularities within the movement pattern (random walk). […]

The mark [2] stands for this setting: circadian registration, Imipramine 15 mg/kg/day i.p., Example 130b approx. 3, 10, 30 mg/kg/day.
Setting [3] is: Imipramine 15 mg/kg/day i.p., Example 130b hydrochloride approx. 3, 10, 30 mg/kg/day via drinking fluid.

Consider `NCc1c(-c2ccc(Cl)cc2Cl)ncn1Cc1ccccc1` [Example 24b, (1-benzyl-4-(2,4-dichlorophenyl)-1H-imidazol-5-yl)methanamine], for which the LogBB is given as −0.36 in data set [1] (Animal No. 1); −0.33 in data set [1] (Animal No. 2); −0.26 in data set [1] (Animal No. 3); −0.34 in data set [1] (Animal No. 4); −0.29 in data set [1] (Animal No. 5). In addition, the Kp at 60 min in data set [1] is 0.483. Moreover, in data set [1], the Kp at 1 h was 0.483. Moreover, the “LogBB Mean” value in data set [1] is recorded as −0.3160.
Consider `NCc1c(-c2ccc(Cl)cc2Cl)ncn1Cc1cccnc1` [Example 121b, (4-(2,4-dichlorophenyl)-1-((pyridin-3-yl)methyl)-1H-imidazol-5-yl)methanamine], for which the LogBB was −0.57 in data set [1] (Animal No. 1), −0.50 in data set [1] (Animal No. 2), −0.70 in data set [1] (Animal No. 3) and −0.91 in data set [1] (Animal No. 4). In addition, the Kp at 60 min in data set [1] is 0.214. The Kp at 1 h in data set [1] worked out at 0.214. For the same compound, the “LogBB Mean” value in data set [1] was −0.6700.
For the compound `NCc1c(-c2ccc(Cl)cc2Cl)ncn1Cc1ccccn1` [Example 39b], the LogBB in data set [1] (Animal No. 1) was −0.56; in data set [1] (Animal No. 2) it was −0.43; in data set [1] (Animal No. 3), −0.53; in data set [1] (Animal No. 4), −0.38; in data set [1] (Animal No. 5) it was −0.39. Besides, the Kp at 60 min in data set [1] is 0.275. The Kp at 1 h in data set [1] turned out to be 0.275. In data set [1], the “LogBB Mean” value was −0.4580.
Turning to `NCc1c(-c2ccc(Cl)cc2Cl)ncn1Cc1ccsc1` [Example 130b, (4-(2,4-dichlorophenyl)-1-((thiophen-3-yl)methyl)-1H-imidazol-5-yl)methanamine], in the data set on male Sprague Dawley rats (22 hours of measurement, Example 130b approx. 3, 10, 30 mg/kg/day), the “cumulated number of drinking bouts” value was “dose-dependently reached a lower total number”. For the same compound, in the data set on male Sprague Dawley rats (setting [2]), the “horizontal and vertical (locomotor) activity” value is “no statistically significant effects”; the “time accessing food and water (fluid)” value is reported as “did not differ”. Moreover, the “locomotor stereotypies (stereotypy index)” value in the data set on male Sprague Dawley rats (first hour of the dark phase, Imipramine: level 2, 3 and 4 stereotypies, Example 130b: usage of available space or stereotypy index) is on record as “no statistically significant effects”. In the data set with male Sprague Dawley rats (setting [3]), the “body weight (gain)” value is “not affected”, the fluid intake entry is recorded as “dose-dependently led to a reduction” and the food intake entry was “not affected”. For the same compound, the LogBB in data set [1] (Animal No. 1) was −0.65. Also, the LogBB in data set [1] (Animal No. 2) was −0.63. Moreover, the LogBB in data set [1] (Animal No. 3) is on record as −1.03. Also, in data set [1] (Animal No. 4), the LogBB is −0.12. Further, the LogBB in data set [1] (Animal No. 5) is reported as −0.76. Moreover, in data set [1], the Kp at 60 min came to 0.23, the Kp at 1 h was found to be 0.23 and the “LogBB Mean” value is listed as −0.6380.
